Each structure is given as a SMILES string.

Format in all cases: in vivo
The subject of assay [1] is Echinochloa crus-galli var. crus-galli. In words: Test Example 3: herbicidal effect by application to foliage (Wagner pot, water depth 0.1-0.5 cm). Conditions: Nineteenth Table, application to foliage. The procedure, abridged: (§1)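 Foliar spray, 14-day-old plants, emulsion diluted to target g/ha; rated 3 wk post-application, 0–5 scale (0 ≤5%, 5 ≥90% herbicidal ratio). Greenhouse 25–30 °C, alluvial soil.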

Assay [2] relates to Cyperus difformis. The assay is described as above. Conditions: Nineteenth Table, application to foliage. The method in brief:
as §1

The test system of assay [3] is Leptochloa chinensis. Described as above. Particulars: Nineteenth Table, application to foliage. The method in brief:
as §1

The test system of assay [4] is Monochoria vaginalis. In words: Test Example 1: herbicidal activity, application before weed generation in submerged conditions. Conditions: Seventeenth Table; for C: Monochoria vaginalis (herbicidal effect grade): Application herbicide amount 320 g/ha. The method in brief:
(§2)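 Water-diluted emulsion formulation is applied onto flood water (4 cm deep) covering alluvial soil on the day weed seeds are sown, after transplanting 2.5 leaf stage rice. Rates are expressed per hectare. Injury or control is graded 0–5 three weeks later.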

Assay [5] relates to Scirpus juncoides. The description is as above. Conditions: Seventeenth Table; for B: Scirpus juncoides (herbicidal effect grade): Application herbicide amount 320 g/ha. The procedure, abridged: as §2
In assay [6] the test system is Echinochloa oryzacola Vasing. Described as above. Particulars: Seventeenth Table; for A: Echinochloa oryzicola Vasing. (herbicidal effect grade): Application herbicide amount 320 g/ha. The procedure, abridged: as §2
Setting [7] is: application herbicide amount 320 g/ha.
The mark [8] stands for this setting: application herbicide amount 200 g/ha.

As to `CCS(=O)(=O)c1nnc2c(C(=O)Nc3nnnn3C)ccc(C(F)(F)F)n12` [2-038], in assay [1] (setting [7]), the “H (herbicidal effect grade)” value is 5 (Herbicidal ratio of 90% or more (almost completely withered)). The “E (herbicidal effect grade)” value in assay [2] (setting [7]) is given as 5 (Herbicidal ratio of 90% or more (almost completely withered)). Besides, in assay [3] (setting [7]), the “D (herbicidal effect grade)” value is 5 (Herbicidal ratio of 90% or more (almost completely withered)). The “C: Monochoria vaginalis (herbicidal effect grade)” value (“C: Monochoria vaginalis” below) in assay [4] is listed as 5 (Herbicidal ratio of 90% or more (almost completely withered)). The “B: Scirpus juncoides (herbicidal effect grade)” value (“B: Scirpus juncoides” below) in assay [5] was 5 (Herbicidal ratio of 90% or more (almost completely withered)). Also, in assay [6], the “A: Echinochloa oryzicola Vasing. (herbicidal effect grade)” value is on record as 5 (Herbicidal ratio of 90% or more (almost completely withered)).
As to `CC(C)c1nc2c(C(=O)Nc3nnnn3C)ccc(C(F)(F)F)n2n1` [7-002], the “H (herbicidal effect grade)” value in assay [1] (setting [7]) was 4 (Herbicidal ratio of 70% or more and less than 90%). For the same molecule, the “E (herbicidal effect grade)” value in assay [2] (setting [7]) was 4 (Herbicidal ratio of 70% or more and less than 90%). Moreover, the “D (herbicidal effect grade)” value in assay [3] (setting [7]) was 4 (Herbicidal ratio of 70% or more and less than 90%). Moreover, in assay [4] (setting [7]), the “C (Monochoria vaginalis) herbicidal ratio grade” value was 4 (Herbicidal ratio of 70% or more and less than 90%). Further, the “B (Scirpus juncoides) herbicidal ratio grade” value in assay [5] (setting [7]) was 3 (Herbicidal ratio of 40% or more and less than 70%). For the same molecule, the “A (Echinochloa oryzicola Vasing.) herbicidal ratio grade” value in assay [6] (setting [7]) was 3 (Herbicidal ratio of 40% or more and less than 70%).
On to `CC(C)c1nnc2c(C(=O)Nc3nnnn3C)ccc(C(F)(F)F)n12` [2-003], for which, in assay [1] (setting [8]), the “H (herbicidal effect grade)” value is on record as 5 (Herbicidal ratio of 90% or more (almost completely withered)). For the same molecule, the “E (herbicidal effect grade)” value in assay [2] (setting [8]) is recorded as 5 (Herbicidal ratio of 90% or more (almost completely withered)). Further, the “D (herbicidal effect grade)” value in assay [3] (setting [8]) is 5 (Herbicidal ratio of 90% or more (almost completely withered)). In assay [4], the “C: Monochoria vaginalis” value is listed as 5 (Herbicidal ratio of 90% or more (almost completely withered)). For the same molecule, the “B: Scirpus juncoides” value in assay [5] is 5 (Herbicidal ratio of 90% or more (almost completely withered)). In addition, in assay [6], the “A: Echinochloa oryzicola Vasing. (herbicidal effect grade)” value was 5 (Herbicidal ratio of 90% or more (almost completely withered)).
`CCCn1nnnc1NC(=O)c1ccc(C(F)(F)F)n2c(C(C)C)nnc12` [2-090]: the “H (herbicidal effect grade)” value in assay [1] (setting [7]) is given as 5 (Herbicidal ratio of 90% or more (almost completely withered)). In assay [2] (setting [7]), the “E (herbicidal effect grade)” value was 5 (Herbicidal ratio of 90% or more (almost completely withered)). In addition, the “D (herbicidal effect grade)” value in assay [3] (setting [7]) was 4 (Herbicidal ratio of 70% or more and less than 90%). Further, the “C: Monochoria vaginalis” value in assay [4] was 5 (Herbicidal ratio of 90% or more (almost completely withered)). Besides, the “B: Scirpus juncoides” value in assay [5] is on record as 5 (Herbicidal ratio of 90% or more (almost completely withered)). Besides, the “A: Echinochloa oryzicola Vasing. (herbicidal effect grade)” value in assay [6] was 5 (Herbicidal ratio of 90% or more (almost completely withered)).
Take `Cn1nnnc1NC(=O)c1ccc(C(F)(F)F)n2c(CS(C)(=O)=O)nnc12` [2-034]: the “H (herbicidal effect grade)” value in assay [1] (setting [7]) is 5 (Herbicidal ratio of 90% or more (almost completely withered)). The “E (herbicidal effect grade)” value in assay [2] (setting [7]) is given as 5 (Herbicidal ratio of 90% or more (almost completely withered)). In addition, the “D (herbicidal effect grade)” value in assay [3] (setting [7]) was 5 (Herbicidal ratio of 90% or more (almost completely withered)). Further, the “C: Monochoria vaginalis” value in assay [4] was 4 (Herbicidal ratio of 70% or more and less than 90%). In addition, in assay [5], the “B: Scirpus juncoides” value was 4 (Herbicidal ratio of 70% or more and less than 90%). In assay [6], the “A: Echinochloa oryzicola Vasing. (herbicidal effect grade)” value is 5 (Herbicidal ratio of 90% or more (almost completely withered)).
For the molecule `CC(c1nnc2c(C(=O)Nc3nnnn3C)ccc(C(F)(F)F)n12)S(C)(=O)=O` (stereo not drawn) [2-054], the “H (herbicidal effect grade)” value in assay [1] (setting [7]) was 5 (Herbicidal ratio of 90% or more (almost completely withered)). In assay [2] (setting [7]), the “E (herbicidal effect grade)” value is given as 5 (Herbicidal ratio of 90% or more (almost completely withered)). The “D (herbicidal effect grade)” value in assay [3] (setting [7]) was 5 (Herbicidal ratio of 90% or more (almost completely withered)). Besides, the “C: Monochoria vaginalis” value in assay [4] is reported as 5 (Herbicidal ratio of 90% or more (almost completely withered)). Moreover, the “B: Scirpus juncoides” value in assay [5] is 5 (Herbicidal ratio of 90% or more (almost completely withered)). Also, the “A: Echinochloa oryzicola Vasing. (herbicidal effect grade)” value in assay [6] is 5 (Herbicidal ratio of 90% or more (almost completely withered)).
On to `Cn1nnnc1NC(=O)c1ccc(C(F)(F)F)n2c(S(C)(=O)=O)nnc12` [2-037], for which the “H (herbicidal effect grade)” value in assay [1] (setting [7]) is 5 (Herbicidal ratio of 90% or more (almost completely withered)). Besides, the “E (herbicidal effect grade)” value in assay [2] (setting [7]) is on record as 5 (Herbicidal ratio of 90% or more (almost completely withered)). The “D (herbicidal effect grade)” value in assay [3] (setting [7]) is 5 (Herbicidal ratio of 90% or more (almost completely withered)). The “C: Monochoria vaginalis” value in assay [4] was 5 (Herbicidal ratio of 90% or more (almost completely withered)). Also, the “B: Scirpus juncoides” value in assay [5] is given as 5 (Herbicidal ratio of 90% or more (almost completely withered)). Besides, the “A: Echinochloa oryzicola Vasing. (herbicidal effect grade)” value in assay [6] was 5 (Herbicidal ratio of 90% or more (almost completely withered)).
`CC(C)c1nnc2c(C(=O)Nc3nnnn3C)ccc(C(F)F)n12` [2-047]: the “H (herbicidal effect grade)” value in assay [1] (setting [7]) was 4 (Herbicidal ratio of 70% or more and less than 90%). The “E (herbicidal effect grade)” value in assay [2] (setting [7]) was 5 (Herbicidal ratio of 90% or more (almost completely withered)). For the same molecule, in assay [3] (setting [7]), the “D (herbicidal effect grade)” value is recorded as 5 (Herbicidal ratio of 90% or more (almost completely withered)). Further, in assay [4], the “C: Monochoria vaginalis” value is listed as 5 (Herbicidal ratio of 90% or more (almost completely withered)). The “B: Scirpus juncoides” value in assay [5] is 4 (Herbicidal ratio of 70% or more and less than 90%). For the same molecule, the “A: Echinochloa oryzicola Vasing. (herbicidal effect grade)” value in assay [6] is 5 (Herbicidal ratio of 90% or more (almost completely withered)).
Turning to `C#CCN(C)c1nnc2c(C(=O)Nc3nnnn3C)ccc(C(F)(F)F)n12` [2-094], the “H (herbicidal effect grade)” value in assay [1] (setting [7]) was 5 (Herbicidal ratio of 90% or more (almost completely withered)). The “E (herbicidal effect grade)” value in assay [2] (setting [7]) is 5 (Herbicidal ratio of 90% or more (almost completely withered)). Further, the “D (herbicidal effect grade)” value in assay [3] (setting [7]) was 5 (Herbicidal ratio of 90% or more (almost completely withered)). Also, the “C: Monochoria vaginalis” value in assay [4] is 5 (Herbicidal ratio of 90% or more (almost completely withered)). In addition, the “B: Scirpus juncoides” value in assay [5] is listed as 5 (Herbicidal ratio of 90% or more (almost completely withered)). In assay [6], the “A: Echinochloa oryzicola Vasing. (herbicidal effect grade)” value is 5 (Herbicidal ratio of 90% or more (almost completely withered)).
In the case of `CN(CCC#N)c1nnc2c(C(=O)Nc3nnnn3C)ccc(C(F)(F)F)n12` [2-095], the “H (herbicidal effect grade)” value in assay [1] (setting [7]) is reported as 5 (Herbicidal ratio of 90% or more (almost completely withered)). In assay [2] (setting [7]), the “E (herbicidal effect grade)” value was 5 (Herbicidal ratio of 90% or more (almost completely withered)). Moreover, the “D (herbicidal effect grade)” value in assay [3] (setting [7]) is on record as 5 (Herbicidal ratio of 90% or more (almost completely withered)). For the same molecule, in assay [4], the “C: Monochoria vaginalis” value was 5 (Herbicidal ratio of 90% or more (almost completely withered)). In assay [5], the “B: Scirpus juncoides” value is 5 (Herbicidal ratio of 90% or more (almost completely withered)). For the same molecule, the “A: Echinochloa oryzicola Vasing. (herbicidal effect grade)” value in assay [6] is 5 (Herbicidal ratio of 90% or more (almost completely withered)).
In the case of `COc1ccccc1-c1nnc2c(C(=O)Nc3nnnn3C)ccc(C(F)(F)F)n12` [2-045], the “H (herbicidal effect grade)” value in assay [1] (setting [7]) was 5 (Herbicidal ratio of 90% or more (almost completely withered)). The “E (herbicidal effect grade)” value in assay [2] (setting [7]) is 5 (Herbicidal ratio of 90% or more (almost completely withered)). For the same molecule, in assay [3] (setting [7]), the “D (herbicidal effect grade)” value is on record as 5 (Herbicidal ratio of 90% or more (almost completely withered)). In addition, the “C: Monochoria vaginalis” value in assay [4] was 5 (Herbicidal ratio of 90% or more (almost completely withered)). In addition, the “B: Scirpus juncoides” value in assay [5] is reported as 5 (Herbicidal ratio of 90% or more (almost completely withered)). Moreover, the “A: Echinochloa oryzicola Vasing. (herbicidal effect grade)” value in assay [6] was 5 (Herbicidal ratio of 90% or more (almost completely withered)).
Consider `Cn1nnnc1NC(=O)c1ccc(C(F)(F)F)n2c(SCc3ccccc3)nnc12` [2-076], for which, in assay [1] (setting [7]), the “H (herbicidal effect grade)” value is given as 5 (Herbicidal ratio of 90% or more (almost completely withered)). The “E (herbicidal effect grade)” value in assay [2] (setting [7]) is 4 (Herbicidal ratio of 70% or more and less than 90%). Further, the “D (herbicidal effect grade)” value in assay [3] (setting [7]) was 4 (Herbicidal ratio of 70% or more and less than 90%). The “C: Monochoria vaginalis” value in assay [4] is 3 (Herbicidal ratio of 40% or more and less than 70%). In assay [5], the “B: Scirpus juncoides” value was 4 (Herbicidal ratio of 70% or more and less than 90%). The “A: Echinochloa oryzicola Vasing. (herbicidal effect grade)” value in assay [6] is listed as 5 (Herbicidal ratio of 90% or more (almost completely withered)).
Take `Cn1nnnc1NC(=O)c1ccc(C(F)(F)F)n2c(N3CCSCC3)nnc12` [2-078]: the “H (herbicidal effect grade)” value in assay [1] (setting [7]) was 5 (Herbicidal ratio of 90% or more (almost completely withered)). The “E (herbicidal effect grade)” value in assay [2] (setting [7]) was 3 (Herbicidal ratio of 40% or more and less than 70%). Further, the “D (herbicidal effect grade)” value in assay [3] (setting [7]) is 5 (Herbicidal ratio of 90% or more (almost completely withered)). Also, the “C: Monochoria vaginalis” value in assay [4] was 2 (Herbicidal ratio of 20% or more and less than 40%). For the same molecule, the “B: Scirpus juncoides” value in assay [5] was 4 (Herbicidal ratio of 70% or more and less than 90%). Further, in assay [6], the “A: Echinochloa oryzicola Vasing. (herbicidal effect grade)” value is 5 (Herbicidal ratio of 90% or more (almost completely withered)).

(Values after patent US9708314B2, “Heterocyclic amide compound” (NISSAN CHEMICAL INDUSTRIES, LTD., priority 2013, dated 2017).)
